Residues, ends and D or L forms follow the SMILES beside them.
What was measured:
[1] = tested on: human pancreatic cancer BxPC-3 xenograft; conditions: for intratumoral macrophage infiltration (F4/80 staining): 25 mg/kg GF9, 2.5 mg/kg GF9-sSLP/GF9-LPC, 4 mg/kg GA/E31-sSLP where stated; for tumor growth: i.p. 5qw, 25 mg/kg GF9, 2.5 mg/kg GF9-SLP, 4 mg/kg GA/E31-SLP where stated
Procedure: (B) F4/80 staining. Results are expressed as the mean±SEM (n=4 mice per group). *, p<0.05; **, p<0.01, ****, p<0.0001 (versus vehicle). […] Scale bar=200 μm.
Treatment persisted for 31, 29 and 29 days for mice containing AsPC-1, BxPC-3 and Capan-1 tumor xenografts, respectively. Mean tumor volumes are calculated and plotted. All results are expressed as the mean±SEM (n=6 mice per group). On the final day of treatment, tumor volumes were compared between the drug-treated and control groups. **, p<0.01; ***, p<0.001; ****, p<0.0001 (versus vehicle).
As described herein, after tumors in AsPC-1-, BxPC-3- or Capan-1-bearing mice reached a volume of 150-200 mm^3, mice were randomized into groups and intraperitoneally (i.p.) administered once daily 5 times per week (5qw) with either vehicle (black diamonds), GA/E31-dSLP (light gray triangles) or GA/E31-sSLP (white triangles) at indicated doses. Treatment persisted for 31, 29 and 29 days for mice containing AsPC-1, BxPC-3 and Capan-1 tumor xenografts, respectively. Mean tumor volumes are calculated and plotted. All results are expressed as the mean±SEM (n=6 mice per group). On the final day of treatment, tumor volumes were compared between the drug-treated and control groups. **, p<0.01; ***, p<0.001; ****, p<0.0001 (versus vehicle).
Treatment persisted for 31, 29 and 29 days for mice containing AsPC-1, BxPC-3 and Capan-1 tumor xenografts, respectively. Kaplan-Meier survival curves are shown for AsPC-1-, BxPC-3- or Capan-1-bearing mice (n=6 mice per group). **, p<0.01; ***, p<0.001 by log-rank test (versus vehicle).
Serum CSF1, VEGF and IL-6 levels were analyzed on study days 1 and 8 in BxPC-3-bearing mice treated daily 5 times per week (5qw) with either vehicle (black diamonds), GF9 (white circles) or GF9-LPC (black circles) at indicated doses. Results are expressed as the mean±SEM (n=5 mice per group). *, p<0.05; **, p<0.01; ***, p<0.001; ****, p<0.0001 (versus vehicle).

[2] = tested on: AsPC-1, BxPC-3 and Capan-1 xenograft tumors; experiment: Human PC xenograft mouse models: tumor growth, survival, tolerability; assay type: in vivo; conditions: free peptides i.p. once daily 5 days per week at indicated doses
Procedure: (§1) Mice were monitored daily and tumor measurements were taken along the length and width using Vernier calipers twice weekly until sacrifice. Tumor volumes were calculated using a modified ellipsoidal formula: (Length×Width^2)/2.
Results are expressed as the mean±SEM.
as §1
Mice were monitored daily and tumor measurements were taken along the length and width using Vernier calipers twice weekly until sacrifice.

[3] = tested on: LPS-stimulated macrophages; experiment: cytokine production by LPS-stimulated macrophages; assay type: cell-based, murine; conditions: 24 h at 37° C.; for cytokine release by LPS-stimulated macrophages in the presence of HDL: with HDL
Procedure: FIG. 33 presents exemplary data showing cytokine production by LPS-stimulated macrophages incubated for 24 h at 37° C. with GF9, G-TE21, G-HV21 and G-KV21 in the presence of HDL.

LPS-challenged mice [4] = experiment: cytokine production in LPS-challenged mice; assay type: in vivo; conditions: treated 1 h before LPS challenge
Procedure: Control peptide represents an equimolar mixture of two peptides, each of them comprising two amino acid domains A and B where domain A represents a non-functional 9 amino acids-long sequence of the TREM-1 inhibitory therapeutic peptide sequence wherein, Lys5 is substituted with Ala5, whereas domain B is a sulfoxidized methionine residue-containing 22 amino acids-long apolipoprotein A-I helix 4 or 6 peptide sequence, respectively. *, P=0.01 to 0.05 as compared with animals treated with 5 mg/kg TRIOPEP in free form; ***, P=0.0001 to 0.001 as compared with PBS-treated animals.

J774A.1 macrophages = experiment: In vitro macrophage endocytosis of fluorescent peptides with or without HDL; assay type: cell-based, mouse; conditions: for receptors mediating in vitro macrophage endocytosis: pre-incubated with HDL, fucoidan, BLT-1, cytochalasin D; for in vitro macrophage endocytosis, effect of pre-incubation with HDL: rho B-labeled peptides, 1 mg/ml HDL
Procedure: The BALB/c murine macrophage cell line J774A.1 (ATCC TIB-67) were obtained from the American Type Culture Collection (ATCC, Manassas, Va.). The macrophage cells were cultured at 37° C. with 5% CO2 in Dulbecco's modified Eagle's medium (DMEM) (Cellgro, Mediatech Inc, Manassas, Va.) with 2 mM glutamine, 100 U/ml penicillin, 0.1 mg/ml streptomycin, and 10% fetal bovine serum (FBS) (Cellgro, Mediatech Inc, Manassas, Va.) and grown to approximately 90% of confluence in 6-well tissue culture plates (Corning, Tewksbury, Mass.). Cells were incubated for varied time periods from 4 to 24 h at 37° C. with fluorescently labeled peptides (pre-incubated with 1 mg/ml HDL) at a concentration of 4 μM rhodamine B (rho-B). After incubation, cells were washed twice with PBS and lysed using Promega passive lysis buffer (Promega, Madison, Wis.). The rho B fluorescence was measured in the lysates with a 540 nm excitation and a 590 nm emission filters using the Gemini EM fluorescence microplate reader (Molecular Devices, Sunnyvale, Calif.). The protein concentration in the lysates was determined using the Bradford reagent (Bio-Rad, Richmond, Calif.) and the SpectraMax 190 microplate reader (Molecular Devices, Sunnyvale, Calif.).
In one embodiment, after reaching target confluency, cells were incubated for 1 h in medium with or without fucoidan (400 μg/mL), BLT-1 (10 μM) or cytochalasin D (40 μM), Cells were subsequently incubated for 4 h and 22 h at 37° C. in medium containing 2 μM of rho B-labeled peptides G-KV21 and G-HV21 (as calculated for rho B) that were pre-incubated with 1 mg/ml HDL. After incubation, cells were washed twice with PBS and lysed using Promega passive lysis buffer. The rho B fluorescence and protein concentration were measured in the lysates as described above.

LPS-challenged mice [5] = experiment: survival of LPS-challenged (septic shock) mice; assay type: in vivo; conditions: vs vehicle
Source text: FIG. 15B. **, P=0.001 to 0.01 as compared with vehicle-treated animals.

| Compound | intratumoral macrophage infiltration (F4/80 staining) [1] | tumor growth [1] | tumor growth [2] | cytokine release by LPS-stimulated macrophages in the presence of HDL [3] | cytokine production by LPS-stimulated macrophages in the absence of HDL ([3]; without HDL) | TNF-alpha, IL-6 and IL-1beta production in mice at 90 min post LPS challenge (LPS-challenged mice [4]) | receptors mediating in vitro macrophage endocytosis (J774A.1 macrophages) | in vitro macrophage endocytosis, effect of pre-incubation with HDL (J774A.1 macrophages) | survival of LPS-challenged mice (LPS-challenged mice [5]) |
| --- | --- | --- | --- | --- | --- | --- | --- | --- | --- |
| CC(C)C[C@H](NC(=O)[C@H](Cc1ccccc1)NC(=O)CN)C(=O)N[C@@H](CO)C(=O)N[C@@H](CCCCN)C(=O)N[C@@H](CO)C(=O)N[C@@H](CC(C)C)C(=O)N[C@H](C(=O)N[C@@H](Cc1ccccc1)C(=O)NCC(=O)N[C@@H](CCC(=O)O)C(=O)N[C@@H](CCC(=O)O)C(=O)N[C@@H](CC[S+](C)[O-])C(=O)N[C@@H](CCCNC(=N)N)C(=O)N[C@@H](CC(=O)O)C(=O)N[C@@H](CCCNC(=N)N)C(=O)N[C@@H](C)C(=O)N[C@@H](CCCNC(=N)N)C(=O)N[C@@H](C)C(=O)N[C@@H](Cc1c[nH]cn1)C(=O)N[C@H](C(=O)O)C(C)C)C(C)C (some centres unmarked) [G-HV21] (HELM PEPTIDE1{G.F.L.S.K.S.L.V.F.G.E.E.[CS(=O)CC[C@H](N[*:1])C(=O)[*:2]].R.D.R.A.R.A.H.V}$$$$V2.0) | reduce macrophage infiltration into the tumor | significantly inhibits the tumor growth | inhibit tumor growth in three human PC xenograft mouse models | significantly inhibit the cytokine release | does not affect the cytokine production | significantly inhibit the LPS-induced cytokine release | mediated with scavenger receptors (SR) A (SR-A) and BI (SR-B1) with SR-A being the predominant mediator | enhances in vitro macrophage endocytosis | significantly improve survival |
| CC(C)C[C@H](NC(=O)[C@H](Cc1ccccc1)NC(=O)CN)C(=O)N[C@@H](CO)C(=O)N[C@@H](CCCCN)C(=O)N[C@@H](CO)C(=O)N[C@@H](CC(C)C)C(=O)N[C@H](C(=O)N[C@@H](Cc1ccccc1)C(=O)N[C@@H](Cc1c[nH]c2ccccc12)C(=O)N[C@@H](CCC(N)=O)C(=O)N[C@@H](CCC(=O)O)C(=O)N[C@@H](CCC(=O)O)C(=O)N[C@@H](CC[S+](C)[O-])C(=O)N[C@@H](CCC(=O)O)C(=O)N[C@@H](CC(C)C)C(=O)N[C@@H](Cc1ccc(O)cc1)C(=O)N[C@@H](CCCNC(=N)N)C(=O)N[C@@H](CCC(N)=O)C(=O)N[C@@H](CCCCN)C(=O)N[C@H](C(=O)O)C(C)C)C(C)C (some centres unmarked) [G-KV21] (HELM PEPTIDE1{G.F.L.S.K.S.L.V.F.W.Q.E.E.[CS(=O)CC[C@H](N[*:1])C(=O)[*:2]].E.L.Y.R.Q.K.V}$$$$V2.0) | reduce macrophage infiltration into the tumor | significantly inhibits the tumor growth | inhibit tumor growth in three human PC xenograft mouse models | significantly inhibit the cytokine release |  | significantly inhibit the LPS-induced cytokine release | mediated with scavenger receptors (SR) A (SR-A) and BI (SR-B1) with SR-A being the predominant mediator | enhances in vitro macrophage endocytosis | significantly improve survival |

From patent publication US20210322508A1, “PEPTIDES AND COMPOSITIONS FOR TARGETED TREATMENT AND IMAGING” (SIGNABLOK, INC., priority 2018, published 2021)
